The record followed here is ChEMBL document CHEMBL2311245, “Hypoxia-selective O6-alkylguanine-DNA alkyltransferase inhibitors: design, synthesis, and evaluation of 6-(benzyloxy)-2-(aryldiazenyl)-9H-purines as prodrugs of O6-benzylguanine” (J Med Chem, 2013).

Holding throughout (type): cell-based
Series [1] concerns the target T1, Methylated-DNA--protein-cysteine methyltransferase (Homo sapiens) (UniProt P16455).
T1 sequence (whole entry): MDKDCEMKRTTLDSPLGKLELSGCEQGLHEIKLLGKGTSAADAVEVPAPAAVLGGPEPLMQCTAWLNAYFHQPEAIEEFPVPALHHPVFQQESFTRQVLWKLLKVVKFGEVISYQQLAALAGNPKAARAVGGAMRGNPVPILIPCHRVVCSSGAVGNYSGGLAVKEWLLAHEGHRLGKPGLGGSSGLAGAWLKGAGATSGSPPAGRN
As to the kind of experiment: Inhibition of AGT in human DU145 cells assessed as potentiation of laromustine-induced cytotoxicity under hypoxic condition at >10 uM treated 4 hrs prior to laromustine treatment measured after 24 hrs by clonogenic assay. To be noted: DU-145.

The next series relates to DU-145. The series is described as follows: Prodrug activation in human DU145 cells assessed as O6-benzylguanine formation under normoxic condition at 50 uM over 3 hrs by HPLC analysis. Conditions: du-145, 3 h.
The test system of a further series is EMT6. The series is described as follows: Prodrug activation in mouse EMT6 cells assessed as O6-benzylguanine formation under normoxic condition at 50 uM after 3 hrs by HPLC analysis. To be noted: emt6, 3 h.
In series [2] the target is T1, Methylated-DNA--protein-cysteine methyltransferase (Homo sapiens). As to the kind of experiment: Inhibition of AGT in human DU145 cells assessed as potentiation of laromustine-induced cytotoxicity under normoxic condition up to 10 uM treated 4 hrs prior to laromustine treatment measured after 24 hrs by clonogenic assay. Conditions: DU-145.
Series [3] has the same target. As to the kind of experiment: Inhibition of AGT in human DU145 cells assessed as potentiation of laromustine-induced cytotoxicity under hypoxic condition up to 10 uM treated 4 hrs prior to laromustine treatment measured after 24 hrs by clonogenic assay. To be noted: DU-145.
Series [4] shares this target. The series is described as follows: Inhibition of AGT in human DU145 cells assessed as potentiation of laromustine-induced cytotoxicity under normoxic condition up to 50 uM treated 4 hrs prior to laromustine treatment measured after 24 hrs by clonogenic assay. Conditions: DU-145.
Series [5] has the same target. As to the kind of experiment: Inhibition of AGT in human DU145 cells assessed as potentiation of laromustine-induced cytotoxicity under hypoxic condition up to 50 uM treated 4 hrs prior to laromustine treatment measured after 24 hrs by clonogenic assay. Conditions: DU-145.

Molecules are shown by their SMILES. Activity calls are given as the source filed them. The rule behind the calls is not given here.

For `CN(C)c1ccc(/N=N/c2nc(OCc3ccccc3)c3nc[nH]c3n2)cc1`, the inhibition result in series [1] and in series [3] was “Active” each time. For the same compound, the Drug metabolism result in the series on DU-145 and with EMT6 was “Not Active” in each case. For the same compound, the inhibition entry in series [2] is “inactive”.
`CN1CCN(c2ccc(/N=N/c3nc(OCc4ccccc4)c4nc[nH]c4n3)cc2)CC1`: in series [4], the inhibition entry is “inactive”. Further, the inhibition entry in series [5] was “Active”.
